What was measured:
[1] = system: Candida albicans; assay: Modified disc diffusion method; details: 36±1° C. for 48 hours
Description: (§3) A 100 μl solution containing 10^8 cfu/ml bacteria, 10^6 cfu/ml yeast and 10^4 spores/ml mould is prepared from new cultures and is inoculated respectively onto triptonic soy agar (TSA), Sabouraud Dextrose Agar (SDA) and Potato Dextrose Agar (PDA) through the use of diffusion method. 20 μl of sterile water is dropped onto empty discs and the discs are then dipped into sodium borate in powder format. Discs dipped into sodium borate are then placed on planted petri dishes. As a negative control, blank discs onto which 20 μl of sterile water is dropped are used. As a positive control, Ofloxacin (10 μg/disc) and nystatin (30 μg/disc) are respectively used for bacteria and fungi.
(§4) Planted petri dishes on which modified disc diffusion method is applied are kept at 36±1° C. for 24 hours for bacteria, at 36±1° C. for 48 hours for yeasts and at 25±1° C. for 72 hours for moulds. Antimicrobial activity inhibition zone (a zone where no microorganisms grow) is measured and evaluated for microorganisms tested with modified disc diffusion method. All tests are repeated at least twice.

[2] = system: Fusarium oxysporum; assay: Modified disc diffusion method; details: 25±1° C. for 72 hours
Description: as §3, §4

[3] = system: Staphylococcus aureus; assay: Modified disc diffusion method; details: 36±1° C. for 24 hours
Description: as §3, §4

[4] = system: Botrytis cinerea; assay: Modified disc diffusion method; details: 25±1° C. for 72 hours
Description: as §3, §4

[5] = system: Pseudomonas aeruginosa; assay: Modified disc diffusion method; details: 36±1° C. for 24 hours
Description: as §3, §4

[6] = system: Candida glabrata; assay: Modified disc diffusion method; details: 36±1° C. for 48 hours
Description: as §3, §4

[7] = system: Escherichia coli; assay: Modified disc diffusion method; details: 36±1° C. for 24 hours
Description: as §3, §4

[8] = system: Penicillium vinaceum; assay: Modified disc diffusion method; details: 25±1° C. for 72 hours
Description: as §3, §4

[9] = system: Aspergillus niger; assay: Modified disc diffusion method; details: 25±1° C. for 72 hours
Description: as §3, §4

[10] = system: Penicillium expansum; assay: Modified disc diffusion method; details: 25±1° C. for 72 hours
Description: as §3, §4

[11] = system: Pseudomonas aeruginosa; assay: Antimicrobial tests of textiles on planted petri dishes; type: cell-based; set-up: key: + indicates that (antimicrobial) inhibition zones are observed around the textiles added with sodium borate (FIG. 1-8); details: in vitro, 37° C. for 24 hours
Description: (§1) Sodium borate-added textiles prepared with three different techniques and the unprocessed textiles to which sodium borate is not added are placed on the petri dishes planted with microorganisms and their antimicrobial efficiency is tested.
(§2) Sodium borate-added textiles fixed with methanol, textiles sprayed with sodium borate dissolved in pH-enhanced water and textiles dyed with water-based textile dye the base of which is prepared by the addition of sodium borate are tested. As a negative control, any possible impact which inhibits the growing of microorganisms on textiles which are not processed is observed. […] Tested antimicrobial activity is evaluated upon the measuring of the inhibition zone of the microorganisms handled. All tests are repeated at least twice.

[12] = system: Staphylococcus aureus; assay: as above; type: cell-based; set-up: key: + indicates that (antimicrobial) inhibition zones are observed around the textiles added with sodium borate (FIG. 1-8); details: in vitro, 37° C. for 24 hours
Description: as §1, §2

[13] = system: Escherichia coli; assay: as above; type: cell-based; set-up: key: + indicates that (antimicrobial) inhibition zones are observed around the textiles added with sodium borate (FIG. 1-8); details: in vitro, 37° C. for 24 hours
Description: as §1, §2

[14] = system: MRSA; assay: as above; type: cell-based; set-up: key: + indicates that (antimicrobial) inhibition zones are observed around the textiles added with sodium borate (FIG. 1-8); details: in vitro, 37° C. for 24 hours
Description: as §1, §2

[15] = system: Penicillium expansum; assay: as above; type: cell-based; set-up: key: + indicates that (antimicrobial) inhibition zones are observed around the textiles added with sodium borate (FIG. 1-8); details: in vitro, room temperature for 72 hours
Description: as §1, §2

[16] = system: Candida albicans; assay: as above; type: cell-based; set-up: key: + indicates that (antimicrobial) inhibition zones are observed around the textiles added with sodium borate (FIG. 1-8); details: in vitro, 37° C. for 48 hours
Description: as §1, §2

[17] = system: Fusarium oxysporum; assay: as above; type: cell-based; set-up: key: + indicates that (antimicrobial) inhibition zones are observed around the textiles added with sodium borate (FIG. 1-8); details: in vitro, room temperature for 72 hours
Description: as §1, §2

[18] = system: Candida glabrata; assay: as above; type: cell-based; set-up: key: + indicates that (antimicrobial) inhibition zones are observed around the textiles added with sodium borate (FIG. 1-8); details: in vitro, 37° C. for 48 hours
Description: as §1, §2

[19] = system: Aspergillus niger; assay: as above; type: cell-based; set-up: key: + indicates that (antimicrobial) inhibition zones are observed around the textiles added with sodium borate (FIG. 1-8); details: in vitro, room temperature for 72 hours
Description: as §1, §2

[20] = system: Penicillium vinaceum; assay: as above; type: cell-based; set-up: key: + indicates that (antimicrobial) inhibition zones are observed around the textiles added with sodium borate (FIG. 1-8); details: in vitro, room temperature for 72 hours
Description: as §1, §2

[21] = system: Botrytis cinerea; assay: as above; type: cell-based; set-up: key: + indicates that (antimicrobial) inhibition zones are observed around the textiles added with sodium borate (FIG. 1-8); details: in vitro, room temperature for 72 hours
Description: as §1, §2

O.O.O.O.O.O.O.O.O.O.[Na+].[Na+].[O-]B1OB2OB([O-])OB(O1)O2 [Sodium Borate, sodium borate]
+: Antimicrobial effect (inhibition zone) [1] | Antimicrobial effect (inhibition zone) [2] | Antimicrobial effect (inhibition zone) [3] | Antimicrobial effect (inhibition zone) [4] | Antimicrobial effect (inhibition zone) [5] | Antimicrobial effect (inhibition zone) [6] | Antimicrobial effect (inhibition zone) [7] | Antimicrobial effect (inhibition zone) [8] | Antimicrobial effect (inhibition zone) [9] | Antimicrobial effect (inhibition zone) [10]

CC1COc2c(N3CCN(C)CC3)c(F)cc3c(=O)c(C(=O)O)cn1c23 (stereo not shown) [Ofloxacin]
+: Antimicrobial effect (inhibition zone) [3] | Antimicrobial effect (inhibition zone) [5] | Antimicrobial effect (inhibition zone) [7] | Antimicrobial test result (inhibition zone around textile) [11] | Antimicrobial test result (inhibition zone around textile) [12] | Antimicrobial test result (inhibition zone around textile) [13] | Antimicrobial test result (inhibition zone around textile) [14]

C[C@@H]1[C@H](O)[C@@H](C)/C=C/C=C/CC/C=C/C=C/C=C/C=C/C(O[C@H]2O[C@H](C)[C@@H](O)[C@H](N)[C@@H]2O)CC2O[C@](O)(CC(O)C(O)CCC(O)CC(O)CC(O)CC(=O)O[C@H]1C)CC(O)C2C(=O)O (stereo partly shown) [Nystatin]
+: Antimicrobial effect (inhibition zone) [1] | Antimicrobial effect (inhibition zone) [2] | Antimicrobial effect (inhibition zone) [4] | Antimicrobial effect (inhibition zone) [6] | Antimicrobial effect (inhibition zone) [8] | Antimicrobial effect (inhibition zone) [9] | Antimicrobial test result (inhibition zone around textile) [15] | Antimicrobial test result (inhibition zone around textile) [16] | Antimicrobial test result (inhibition zone around textile) [17] | Antimicrobial test result (inhibition zone around textile) [18] | Antimicrobial test result (inhibition zone around textile) [19] | Antimicrobial test result (inhibition zone around textile) [20] | Antimicrobial test result (inhibition zone around textile) [21] | Antimicrobial effect (inhibition zone) [10]
